Measured values from patent publication US6355673B1, “Substituted diaminocarboxylic acids” (Aventis Pharma Deutschland GmbH, priority 1997, dated 2002).

Columns and labels:
stromelysin (MMP-3) = molecular target: T1, stromelysin (MMP-3) (Homo sapiens, UniProt P08254); assay: Enzyme inhibition of the catalytic domain of human stromelysin (fluorogenic substrate); assay type: biochemical; details: 15 min preincubation, pH=6.5, fluorescence 328 nm (ex)/393 nm (em)
T1 construct: enzymatic activity of the catalytic domains of human stromelysin and of neutrophil collagenase; made in house
Summary of the method: (§1)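 Recombinant catalytic domains of MMP-3 or MMP-8 were preincubated 15 min with compound in Tris/NaCl/CaCl2/PIPES buffer with 0.05% Brij, pH 6.5. Reaction was started with Mca-Pro-Leu-Gly-Leu-Dpa-Ala-Arg-NH2 and followed by fluorescence (328/393 nm) as rate per min; IC50 was the concentration giving 50% inhibition.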

[1] = molecular target: T2, neutrophil collagenase (MMP-8) (Homo sapiens, UniProt P22894); assay: Enzyme inhibition of the catalytic domain of neutrophil collagenase (fluorogenic substrate); assay type: biochemical; details: 15 min preincubation, pH=6.5, fluorescence 328 nm (ex)/393 nm (em)
T2 construct: enzymatic activity of the catalytic domains of human stromelysin and of neutrophil collagenase; made in house
Summary of the method: as §1

T1 sequence (P08254 100-272 limits assumed): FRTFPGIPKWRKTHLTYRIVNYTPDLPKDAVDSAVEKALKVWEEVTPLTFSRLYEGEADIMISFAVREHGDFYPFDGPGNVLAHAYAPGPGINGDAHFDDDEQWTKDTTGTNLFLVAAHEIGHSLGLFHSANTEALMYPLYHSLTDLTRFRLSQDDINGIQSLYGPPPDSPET
T2 sequence (P22894 100-262 limits assumed): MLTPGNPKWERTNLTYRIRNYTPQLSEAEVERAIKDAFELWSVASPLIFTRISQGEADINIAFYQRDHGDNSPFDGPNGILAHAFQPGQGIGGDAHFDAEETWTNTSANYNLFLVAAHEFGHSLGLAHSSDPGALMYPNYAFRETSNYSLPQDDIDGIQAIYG

IC50 (stromelysin (MMP-3)) [nM]	melting point [°C]	IC50 [1] [nM]	Structure (SMILES)
40	167	6	O=C(O)[C@H](CCN1C(=O)c2ccccc2C1=O)NS(=O)(=O)c1ccc(-c2ccccc2)cc1 [Example 28]
6	179	2	O=C(O)[C@H](CCCN1C(=O)c2ccccc2C1=O)NS(=O)(=O)c1ccc(-c2ccc(Cl)cc2)cc1 [Example 32]
6	238	3	O=C(O)C(CCN1C(=O)c2ccccc2C1=O)NS(=O)(=O)c1ccc(-c2ccc(Cl)cc2)cc1 (racemic) [Example 29]
5	178	2	O=C(O)[C@@H](CCCN1C(=O)c2ccccc2C1=O)NS(=O)(=O)c1ccc(-c2ccc(Cl)cc2)cc1 [Example 6, 2-(2R)-(4-Chlorobiphenylsulfonylamino)-5-phthalimidoyl-pentanoic acid]
5	132	2	O=C(O)C(CCCN1C(=O)c2ccccc2C1=O)NS(=O)(=O)c1ccc(-c2ccc(Cl)cc2)cc1 (racemic) [Example 31]
4	213 to 215	2	O=C(O)[C@H](CCCN1Cc2ccccc2C1=O)NS(=O)(=O)c1ccc(-c2ccc(Cl)cc2)cc1 [Example 34]

Further lines, the molecule ahead of its results:

Structure (SMILES)	IC50 (stromelysin (MMP-3)) [nM]	melting point [°C]	IC50 [1] [nM]
COC(=O)[C@@H](CCCCNC(=O)OCc1ccccc1)NS(=O)(=O)c1ccc(-c2ccc(Cl)cc2)cc1 [Example 17]		69 to 70	
O=C(O)[C@H](CCCN1Cc2ccccc2C1=O)NS(=O)(=O)c1ccc(Oc2ccc(Cl)cc2)cc1 [Example 68]		223 to 225	
Cc1cc(C)nc(NCCC[C@H](NS(=O)(=O)c2ccc(-c3ccc(Cl)cc3)cc2)C(=O)O)n1 [Example 170]	20	177 to 179	10
CC(C)(C)OC(=O)NCCC[C@H](NS(=O)(=O)c1ccc(Oc2ccc(Cl)cc2)cc1)C(=O)O [Example 172]		131 to 133	
O=C(O)C(CCCN1C(=O)c2ccccc2C1=O)NS(=O)(=O)c1ccc(-c2ccccc2)cc1 (racemic) [Example 30]	30	168	5
O=C(O)C(CCCCN1C(=O)c2ccccc2C1=O)NS(=O)(=O)c1ccc(-c2ccccc2)cc1 (racemic) [Example 33]		181	
